According to patent US20250064983A1, “COMPOSITIONS AND METHODS FOR TREATING A CARDIAC DISEASE” (The Children's Medical Center Corporation, priority 2022, published 2025):
Entries after “also recorded” stand apart in the source; their conditions may differ.

Key:
Format in all cases: in vivo, mouse
Tbx5 knockout mice = assay: Example 5: beat-to-beat variability (EKG) in Tbx5 knockout mice (AF model)
Description: Two different atrial fibrillation (AF) mouse models were used to test the efficacy of AIP×5 at treating AF of different origins. The two different AF mouse models were liver kinase B1 (LKB1) knock out mice and T-box transcription factor 5 (Tbx5) knock out mice.
LKB1-floxed or Tbx5-floxed mice were used to test the efficacy of AIP×5. AAV-NPPA-Cre was then used to conditionally knock out LKB1 or Tbx5 from the atria of the mice. NPPA is an atria specific promoter, ensuring that Cre recombinase directed knockout of LKB1 or Tbx5 was restricted to the atria. AAV-NPPA-FP (fluorescent protein) was used as a control virus. AAV-NPPA-FP has no Cre, and therefore the gene of interest is not knocked out. Uninjected mice were also included as a control to account for any effects caused by AAV injections. AAV-cTnT-AIP×5 or AAV-cTnT-CN19o were both tested as potential therapies to AF.
In short, P3 LKB1-floxed or Tbx5-floxed mice were injected (or not injected in the uninjected controls), and then EKG measurements of the mice were taken every two weeks starting at P14. At 12 weeks, the mice were sacrificed, and the sacrificed mice were tested for protein expression.
AF was calculated using the standard deviation of the beat-to-beat timing differences. A high beat-to-beat variability when sedated was indicative of atrial misfiring. […]

LKB Flox/Flox mice = assay: Example 4: beat to beat variation in LKB Flox/Flox mice with NPPA-Cre (atrial fibrillation model); conditions: co-injection of NPPA-Cre and AIP×5-mcherry AAV; 2, 4 and 6 weeks
Description: FIGS. 7A and 7B provide plots showing the impact of AIP×5 administration on atrial fibrillation in a mouse model. LKB Flox/Flox mice were double injected with AAV-NPPA-Cre and AAV-AIP×5-mcherry (see FIG. 6). FIG. 7A provides plots showing results from an experiment where mice positive for the LKB1 flanked by LoxP sites (LKB1flox/flox) were injected with either AAV9-NPPA-RFP, AAV9-NPPA-Cre or double injections of AAV9-NPPA-Cre+AAV9-cTnT-AIP×5 at post-natal day 3 (P3). At two week intervals, ECG recordings for 3 minutes were performed under anesthesia. The time difference between two QRS complexes (RR interval) was plotted as a function of the following interval (RR+1). FIG. 7B provides a plot where the standard deviation of the RR intervals for a 1 minute recording was calculated for each animal at the time points shown.
Experiments were undertaken to evaluate the efficacy of AIP×5 administration in treatment of atrial fibrillation. LKB Flox/Flox mice were double injected with NPPA-Cre and AIP×5-mcherry using an AAV vector. The mice were a model for atrial fibrillation. […] It was evaluated whether co-injection with AAV-AIP×5 would reduce AF. Beat to beat variation in HR, an index of AF frequency, was analyzed by plotting each RR interval (R) versus the RR interval of the subsequent beat (RI) (n=˜500 beats) (FIG. 7A). […] HR beat to beat variation was analyzed at 2 weeks, 4 weeks, and 6 weeks.

[1] = test system: RYR2^R176Q/QT and RYR2^R4560I/WT mice; assay: Example 3: AAV vectors expressing AIP×5 in CPVT animal models; conditions: example written in present tense
Description: FIG. 6 provides a schematic showing administration of AAV vectors to RYR2^R176Q/WT and RYR2^R4560I/WT mice. […]. The top portion of FIG. 6 provides a schematic showing the components of polynucleotides of the AAV vectors. In FIG. 6, ITR represents “inverted terminal repeat,” CASQ2 represents a calsequestrin 2 enhancer, cTnT represents a “cardiac troponin” promoter, an INT represents a hemoglobin enhancer, AIP×5 represents a multimer containing five autocamtide-2-related inhibitory peptide (AIP) units, mScarlet represents the fluorescent polypeptide mScarlet, nls represents a nuclear localization signal, “stop” represents a stop codon, and WPRE represents a Woodchuck Hepatitis Virus (WHV) Posttranscriptional Regulatory Element.
AAV vectors expressing AIP×5 or a negative control AIV vector expressing only mScarlet (see FIG. 6) are prepared and administered to RYR2^R176Q/QT and RYR2^R4560I/WT mice, which are animal models of catecholaminergic polymorphic ventricular tachycardia (CPVT). The efficacy of the vectors in reducing symptoms of CPVT is evaluated in the animal models.

In the case of “YKKALHRQEAVDALYKKALHRQEAVDALYKKALHRQEAVDALYKKALHRQEAVDALYKKALHRQEAVDAL [AIP×5]”, the “suppression of beat-to-beat variability” value (Tbx5 knockout mice; AAV-cTnT vector, FIG. 11) is reported as “reduction in beat-to-beat variability; also recorded: effective in suppressing beat-to-beat variability”, the “beat-to-beat variability, statistical difference to control” value (Tbx5 knockout mice; after week 4) is reported as “no statistically significant difference in beat-to-beat variability” and the “symptoms of AF (beat to beat variation of RR interval)” value (LKB Flox/Flox mice) is reported as “effective in reducing symptoms of AF”. For the same sequence, the “symptoms of CPVT (ectopy and/or ventricular tachycardia)” value [1] was “reduction in symptoms of CPVT”.
